Reference: US8765773B2, “Substituted hydroxamic acids and uses thereof” (Millennium Pharmaceuticals, Inc., priority 2010, dated 2014)

Target: T1, purified human HDAC6 (Homo sapiens, UniProt Q9UBN7)
T1 construct: purchased BPS Bioscience 5006
T1 sequence (Q9UBN7 1-1215): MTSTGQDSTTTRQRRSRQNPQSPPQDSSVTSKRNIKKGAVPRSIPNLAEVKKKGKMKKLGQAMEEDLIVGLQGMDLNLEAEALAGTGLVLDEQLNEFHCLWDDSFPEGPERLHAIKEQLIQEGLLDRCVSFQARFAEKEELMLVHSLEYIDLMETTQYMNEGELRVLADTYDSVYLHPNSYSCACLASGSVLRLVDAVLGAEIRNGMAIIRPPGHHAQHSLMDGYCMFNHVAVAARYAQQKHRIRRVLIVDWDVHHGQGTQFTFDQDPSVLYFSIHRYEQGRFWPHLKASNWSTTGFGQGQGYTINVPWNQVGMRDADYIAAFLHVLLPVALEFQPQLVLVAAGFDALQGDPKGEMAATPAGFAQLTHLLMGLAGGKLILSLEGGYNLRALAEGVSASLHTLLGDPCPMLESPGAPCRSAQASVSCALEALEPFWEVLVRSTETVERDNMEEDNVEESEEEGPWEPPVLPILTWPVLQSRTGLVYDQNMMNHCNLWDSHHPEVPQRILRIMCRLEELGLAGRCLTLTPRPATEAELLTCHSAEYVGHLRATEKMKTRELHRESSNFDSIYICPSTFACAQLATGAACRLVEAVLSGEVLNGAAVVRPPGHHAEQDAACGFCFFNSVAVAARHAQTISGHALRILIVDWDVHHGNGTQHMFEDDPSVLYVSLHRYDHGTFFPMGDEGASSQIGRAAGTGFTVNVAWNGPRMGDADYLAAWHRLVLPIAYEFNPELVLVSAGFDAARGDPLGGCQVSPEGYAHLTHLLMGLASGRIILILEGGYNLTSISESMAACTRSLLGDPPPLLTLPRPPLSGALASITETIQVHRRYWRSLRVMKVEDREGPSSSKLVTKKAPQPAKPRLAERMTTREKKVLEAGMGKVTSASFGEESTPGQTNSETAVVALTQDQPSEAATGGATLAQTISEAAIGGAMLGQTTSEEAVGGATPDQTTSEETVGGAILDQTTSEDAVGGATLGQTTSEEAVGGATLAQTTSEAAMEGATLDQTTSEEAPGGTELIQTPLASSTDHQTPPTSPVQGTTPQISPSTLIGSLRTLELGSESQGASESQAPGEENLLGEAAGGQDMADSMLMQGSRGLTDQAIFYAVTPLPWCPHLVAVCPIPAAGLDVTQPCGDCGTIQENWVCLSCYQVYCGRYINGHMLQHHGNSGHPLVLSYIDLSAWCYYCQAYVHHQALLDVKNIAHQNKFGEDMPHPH
Assay: HDAC6 Enzyme Assay
Format: biochemical
Conditions: read-out: Percent Inhibition; for inhibition at 0.37 µM: compound concentration 0.37 μM; for inhibition at 0.412 µM: compound concentration 0.412 μM
Method in brief: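 Purified human HDAC6 incubated 1 h at 30° C with Ac-Arg-Gly-Lys(Ac)-AMC peptide plus compound or DMSO; stopped with trichostatin A. Deacetylated product trypsin-digested, released AMC read by fluorescence (Ex 340/Em 460 nm). Percent inhibition at one concentration or IC50 from curves relative to DMSO controls.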

SMILES	inhibition at 0.37 µM [%]	inhibition at 0.412 µM [%]
CC(C)(C)OC(=O)NCCCn1ccc2ccc(C(=O)NO)cc2c1=O [Compound I-245, tert-butyl {3-[7-[(hydroxyamino)carbonyl]-1-oxoisoquinolin-2(1H)-yl]propyl}carbamate]	94.5	
O=C(NO)c1ccc2ccn(-c3ccc(Cl)cc3)c(=O)c2c1 [Compound I-247, 2-(4-chlorophenyl)-N-hydroxy-1-oxo-1,2-dihydroisoquinoline-7-carboxamide]	93	
COc1ccccc1OCc1nc2cc(C(=O)NO)ccc2c(=O)[nH]1 [Compound I-248, N-hydroxy-2-[(2-methoxyphenoxy)methyl]-4-oxo-3,4-dihydroquinazoline-7-carboxamide]		90
CS(=O)(=O)c1ccccc1OCc1nc2cc(C(=O)NO)ccc2c(=O)[nH]1 [Compound I-249, N-hydroxy-2-{[2-(methylsulfonyl)phenoxy]methyl}-4-oxo-3,4-dihydroquinazoline-7-carboxamide]		56.5
NC(=O)CCn1ccc2ccc(C(=O)NO)cc2c1=O [Compound I-250, 2-(3-amino-3-oxopropyl)-N-hydroxy-1-oxo-1,2-dihydroisoquinoline-7-carboxamide]		77
O=C(NO)c1ccc2ccn(CCOc3ccccc3)c(=O)c2c1 [Compound I-252, N-hydroxy-1-oxo-2-(2-phenoxyethyl)-1,2-dihydroisoquinoline-7-carboxamide]		97.6
O=C(NO)c1ccc2ccn(CCN(Cc3cccc(C(F)(F)F)c3)Cc3cccc(C(F)(F)F)c3)c(=O)c2c1 [Compound I-253, 2-(2-{bis[3-(trifluoromethyl)benzyl]amino}ethyl)-N-hydroxy-1-oxo-1,2-dihydroisoquinoline-7-carboxamide]		57.5
CCC(C)Cn1ccc2ccc(C(=O)NO)cc2c1=O (centres unmarked) [Compound I-255, N-hydroxy-2-(2-methylbutyl)-1-oxo-1,2-dihydroisoquinoline-7-carboxamide]		85.6
CC(C)n1cnc2cc(C(=O)NO)ccc2c1=O [Compound I-256, N-hydroxy-3-isopropyl-4-oxo-3,4-dihydroquinazoline-7-carboxamide]		72
COc1ccc(OCCn2ccc3ccc(C(=O)NO)cc3c2=O)cc1 [Compound I-257, N-hydroxy-2-[2-(4-methoxyphenoxy)ethyl]-1-oxo-1,2-dihydroisoquinoline-7-carboxamide]		96.8
O=C(NO)c1ccc2c(=O)[nH]c(-c3cccc(C(F)(F)F)c3)nc2c1 [Compound I-260, N-hydroxy-4-oxo-2-[3-(trifluoromethyl)phenyl]-3,4-dihydroquinazoline-7-carboxamide]		73.2
O=C(NO)c1ccc2ccn(CC3CC3)c(=O)c2c1 [Compound I-261, 2-(cyclopropylmethyl)-N-hydroxy-1-oxo-1,2-dihydroisoquinoline-7-carboxamide]		87.5
O=C(NO)c1ccc2c(=O)n(-c3ccc(Cl)cc3)c(NCc3ccc(Cl)cc3)nc2c1 [Compound I-262, 2-[(4-chlorobenzyl)amino]-3-(4-chlorophenyl)-N-hydroxy-4-oxo-3,4-dihydroquinazoline-7-carboxamide]		68.2
O=C(NO)c1ccc2[nH]c(=O)n(Cc3ccccc3)c(=O)c2c1 [Compound I-264, 3-benzyl-N-hydroxy-2,4-dioxo-1,2,3,4-tetrahydroquinazoline-6-carboxamide]		93
Cc1ccc(OCc2nc3cc(C(=O)NO)ccc3c(=O)[nH]2)cc1 [Compound I-265, N-hydroxy-2-[(4-methylphenoxy)methyl]-4-oxo-3,4-dihydroquinazoline-7-carboxamide]		81.3
O=C(NO)c1ccc2ccn(CCCn3cccc3)c(=O)c2c1 [Compound I-269, N-hydroxy-1-oxo-2-[3-(1H-pyrrol-1-yl)propyl]-1,2-dihydroisoquinoline-7-carboxamide]		94.5
CC(C)CCCn1cnc2cc(C(=O)NO)ccc2c1=O [Compound I-275, N-hydroxy-3-(4-methylpentyl)-4-oxo-3,4-dihydroquinazoline-7-carboxamide]		94.9
CCOCCn1cnc2cc(C(=O)NO)ccc2c1=O [Compound I-276, 3-(2-ethoxyethyl)-N-hydroxy-4-oxo-3,4-dihydroquinazoline-7-carboxamide]		88.1

Other lines, results leading:

inhibition at 0.37 µM [%]	inhibition at 0.412 µM [%]	SMILES
	97.7	O=C(NO)c1ccc2ccn(CCOc3ccc(Cl)cc3)c(=O)c2c1 [Compound I-246, 2-[2-(4-chlorophenoxy)ethyl]-N-hydroxy-1-oxo-1,2-dihydroisoquinoline-7-carboxamide]
	96.6	O=C(NO)c1ccc2ccn(CCc3cccc4ccccc34)c(=O)c2c1 [Compound I-251, N-hydroxy-2-[2-(1-naphthyl)ethyl]-1-oxo-1,2-dihydroisoquinoline-7-carboxamide]
94		O=C(NO)c1ccc2ncn(Cc3cccc(-c4ccc(S(=O)(=O)N5CCCCC5)cc4)c3)c(=O)c2c1 [Compound I-254, N-hydroxy-4-oxo-3-{[4′-(piperidin-1-ylsulfonyl)biphenyl-3-yl]methyl}-3,4-dihydroquinazoline-6-carboxamide]
	93.9	O=C(NO)c1ccc2ccn(CCOc3cccc(OCc4ccccc4)c3)c(=O)c2c1 [Compound I-258, 2-{2-[3-(benzyloxy)phenoxy]ethyl}-N-hydroxy-1-oxo-1,2-dihydroisoquinoline-7-carboxamide]
	96.1	Cc1onc(-c2ccccc2)c1Cn1ccc2ccc(C(=O)NO)cc2c1=O [Compound I-259, N-hydroxy-2-[(5-methyl-3-phenylisoxazol-4-yl)methyl]-1-oxo-1,2-dihydroisoquinoline-7-carboxamide]
	91.1	O=C(NO)c1ccc2c(=O)n(CCc3ccccn3)c(-c3ccccc3)nc2c1 [Compound I-263, N-hydroxy-4-oxo-2-phenyl-3-(2-pyridin-2-ylethyl)-3,4-dihydroquinazoline-7-carboxamide]
	87.9	CC(C)(C)OC(=O)Nc1cccc(Cn2ccc3ccc(C(=O)NO)cc3c2=O)c1 [Compound I-266, tert-butyl (3-{[7-[(hydroxyamino)carbonyl]-1-oxoisoquinolin-2(1H)-yl]methyl}phenyl)carbamate]
	94.8	CC(C)(C)c1ccc(Cn2ccc3ccc(C(=O)NO)cc3c2=O)cc1 [Compound I-267, 2-(4-tert-butylbenzyl)-N-hydroxy-1-oxo-1,2-dihydroisoquinoline-7-carboxamide]
93.2		O=C(NO)c1ccc2ncn(Cc3cccc(-c4cc5ccccc5s4)c3)c(=O)c2c1 [Compound I-268, 3-[3-(1-benzothien-2-yl)benzyl]-N-hydroxy-4-oxo-3,4-dihydroquinazoline-6-carboxamide]
	83.4	O=C(NO)c1ccc2ccn(CCOc3ccc(OCc4ccccc4)cc3)c(=O)c2c1 [Compound I-270, 2-{2-[4-(benzyloxy)phenoxy]ethyl}-N-hydroxy-1-oxo-1,2-dihydroisoquinoline-7-carboxamide]
	96.9	O=C(NO)c1ccc2ccn(CCOc3ccc(-n4ccnc4)cc3)c(=O)c2c1 [Compound I-271, N-hydroxy-2-{2-[4-(1H-imidazol-1-yl)phenoxy]ethyl}-1-oxo-1,2-dihydroisoquinoline-7-carboxamide]
	97.5	O=C(NO)c1ccc2ccn(Cc3nc4ccccc4s3)c(=O)c2c1 [Compound I-272, 2-(1,3-benzothiazol-2-ylmethyl)-N-hydroxy-1-oxo-1,2-dihydroisoquinoline-7-carboxamide]
	85.1	O=C(Cn1cnc2ccc(C(=O)NO)cc2c1=O)c1ccc(N2CCCC2)cc1 [Compound I-273, N-hydroxy-4-oxo-3-[2-oxo-2-(4-pyrrolidin-1-ylphenyl)ethyl]-3,4-dihydroquinazoline-6-carboxamide]
78.8		CN(C)c1ccc(-c2nc3cc(C(=O)NO)ccc3c(=O)n2Cc2ccc(C(F)(F)F)cc2)cc1 [Compound I-274, 2-[4-(dimethylamino)phenyl]-N-hydroxy-4-oxo-3-[4-(trifluoromethyl)benzyl]-3,4-dihydroquinazoline-7-carboxamide]
